{"source": "patent US11779602B2", "about": "“Methods of use for CAR T cells” (ENDOCYTE, INC., priority 2018, dated 2023)", "key": {"[1]": {"system": "MDA-MB-231 tumors", "assay": "CAR-T/EC17 therapy, fixed dose and dose de-escalation, in mice bearing MDA-MB-231 tumors", "assay_type": "in vivo", "settings": "E2-CAR-T 30 million cells, EC17 dose de-escalation", "description": "The effect of EC17 dose de-escalation was investigated on the anti-tumor activity and the toxicity (body weight changes) of CAR-T therapy. Two different anti-fluorescein scFv were used for the CAR constructions (FIG. 1). The first construct of CAR contains the following domains: antiFL(FITC-E2)scFv-IgG4 hinge (CH2 (L235D, N297Q)-CH3)-CD28 TM-4-1BB-CD3z-T2A-EGFRt. The second construct of CAR contains the following domains: antiFL(FITC-4M5.3)scFv-IgG4 hinge (CH2 (L235D, N297Q)-CH3)-CD28 TM-4-1BB-CD3z-T2A-EGFRt. The nucleic acid sequence and amino acid sequence of the CAR of each construct are shown as SEQ ID NOS:1 to 4. Human T cells were isolated, activated and transduced with a lentiviral vector carrying the appropriate CAR gene. CD4+ T cells with the CAR-modification and CD8+ T cells with the CAR-modification were isolated and cultured separately in vitro for about 7 days. CD4+ CAR-T cells and CD8+ CAR-T cells were mixed at a 1:1 ratio before i.v. administration for animal studies.\nThe second construct 4M5.3-CAR (antiFL(FITC-4M5.3) scFv-IgG4 hinge (CH2 (L235D, N297Q)-CH3)-CD28 TM-4-1BB-CD3z-T2A-EGFRt) was also evaluated. Mice bearing MDA-MB-231 tumors (150-250 mm^3) were used for in vivo studies to evaluate 4M5.3-CAR-T cells. […]"}, "[2]": {"system": "HOS-FRα tumor", "assay": "CRS toxicity and sodium fluorescein rescue in HOS-FRα tumor-bearing mice", "assay_type": "in vivo", "settings": "i.v. ~95 mg/kg on day 13, plasma 6 hours later", "method": "All animal care and use were performed according to NIH guidelines and in compliance with protocols approved by the Purdue University Animal Use and Care Committee. Female 4 to 5-week-old NOD/SCID gamma (NSG™) mice (stock number: 005557) were purchased from The Jackson Laboratory (Bar Harbor, Me.). Unless specifically indicated, all animals were maintained on a FA-deficient diet (TestDiet, St. Louis, Mo.) upon arrival and throughout the study. To establish subcutaneous xenografts, MDA-MB-231 and HOS-FRα were implanted in the right flank region at 2.5×10^6 and 1×10^6 cells per animal, respectively. For intravenous xenografts, THP1-FRβ cells were inoculated at 5×10^6 cells per animal. Subcutaneous tumors were measured 2-3 times per week with a caliper and calculated using the ellipsoidal formula (length×width^2)/2. […] All animal doses (CAR-T cells, EC17, sodium fluorescein) were given intravenously.\nDepending on the CAR-T cell dose and how EC17 is administered, tumor-bearing mice receiving FITC-specific CAR-T cells can experience severe CRS and varying degrees of body weight loss. Therefore, a CRS grading system (0-5 scale) was developed to empirically assess CRS toxicity from animals' gross morphology and social behavior to allow for better timing of CRS rescue. While grades 0 and 5 indicated normal (no CRS) or death (due to severe CRS), respectively, grades 1, 2, and 3-4 were considered mild, light-to-moderate, and severe CRS (FIG. 57A). In addition, all EC17 doses were intentionally given towards the end of any given day to allow potential CRS symptoms to develop overnight. On the days immediately following each EC17 dose, animals were scored and rescue agents such as sodium fluorescein, folic acid and leucovorin were used to mitigate CRS toxicity. In this particular instance, a batch of E2 CAR-T cells with a high EGFRt+CD4/CD8 ratio (˜93:7) was given to HOS-FRα tumor-bearing mice at a mixture of ˜2.5 million CD8 and ˜33 million CD4 on day 0 (FIG. 57B). […]"}}, "data": [{"smiles": "O=C([O-])c1ccccc1-c1c2ccc(=O)cc-2oc2cc([O-])ccc12.[Na+].[Na+]", "note": "[sodium fluorescein, reference compound]", "values": [{"measurement": "antitumor activity after NaFL rescue", "setting": "[1]", "result": "antitumor activity is maintained"}, {"measurement": "effect of rescue on CAR-T cell derived human cytokines", "setting": "[2]", "result": "acted very quickly to reduce CAR-T cell derived human cytokines"}]}]}
